The results in this text go back to ChEMBL document CHEMBL1141566, “Synthesis and antitumor evaluation of bis aza-anthracene-9,10-diones and bis aza-anthrapyrazole-6-ones” (2008).

Assay [1] relates to HT-29. In words: Cytotoxicity against human HT29 cells after 72 hrs. Format: functional. The following applies: HT-29, 72 h.
Assay [2] in a line: Ratio of Kapp for synthetic poly(dA-dT)]2 oligonucleotide to Kapp for synthetic poly(dG-dC)]2 oligonucleotide.
In assay [3] the test system is HT-29. The assay is described as follows: Effect on apoptosis in human HT29 PI+/AnnV+ cells after 6 hrs by biparametric flow cytometric analysis. The following applies: HT-29, 6 h, read-out: LC50 (the source's name). Format: functional.
The test system of assay [4] is HT-29. The assay is described as follows: Effect on apoptosis in human HT29 PI-/AnnV+ cells after 24 hrs by biparametric flow cytometric analysis. The following applies: HT-29, 24 h, read-out: LC50 (the source's name). The class given is functional.
The subject of assay [5] is HT-29. The assay is described as follows: Effect on apoptosis in human HT29 PI-/AnnV- cells after 6 hrs by biparametric flow cytometric analysis. The class given is functional. The following applies: HT-29, 6 h, read-out: LC50 (the source's name).
Assay [6] relates to HT-29. The assay is described as follows: Effect on apoptosis in human HT29 PI-/AnnV- cells after 24 hrs by biparametric flow cytometric analysis. The class given is functional. The following applies: HT-29, 24 h, read-out: LC50 (the source's name).
Assay [7] deals with HT-29. The assay is described as follows: Effect on apoptosis in human HT29 PI-/AnnV- cells after 12 hrs by biparametric flow cytometric analysis. The class given is functional. The following applies: HT-29, 12 h, read-out: LC50 (the source's name).
Assay [8] concerns HT-29. The assay is described as follows: Effect on apoptosis in human HT29 PI-/AnnV+ cells after 6 hrs by biparametric flow cytometric analysis. Format: functional. The following applies: HT-29, 6 h, read-out: LC50 (the source's name).
For assay [9], the system named is HT-29. In words: Effect on apoptosis in human HT29 PI-/AnnV+ cells after 12 hrs by biparametric flow cytometric analysis. Format: functional. The following applies: HT-29, 12 h, read-out: LC50 (the source's name).
For assay [10], the system named is HT-29. In words: Effect on apoptosis in human HT29 PI+/AnnV- cells after 12 hrs by biparametric flow cytometric analysis. Format: functional. The following applies: HT-29, 12 h, read-out: LC50 (the source's name).
Assay [11] relates to HT-29. The assay is described as follows: Effect on apoptosis in human HT29 PI+/AnnV+ cells after 12 hrs by biparametric flow cytometric analysis. The following applies: HT-29, 12 h, read-out: LC50 (the source's name). Format: functional.
Assay [12] concerns HT-29. In words: Effect on apoptosis in human HT29 PI+/AnnV- cells after 6 hrs by biparametric flow cytometric analysis. The following applies: HT-29, 6 h, read-out: LC50 (the source's name). Format: functional.
Assay [13] has as its system HT-29. In words: Effect on apoptosis in human HT29 PI+/AnnV+ cells after 24 hrs by biparametric flow cytometric analysis. The class given is functional. The following applies: HT-29, 24 h, read-out: LC50 (the source's name).
Assay [14] relates to HT-29. In words: Effect on apoptosis in human HT29 PI+/AnnV- cells after 24 hrs by biparametric flow cytometric analysis. The class given is functional. The following applies: HT-29, 24 h, read-out: LC50 (the source's name).

In the assay with HT-29 [1], `CN(C)CCCn1nc2c3c(c(NCCCN(C)CCCNc4ccc5c6c(nn5CCCN(C)C)-c5cnccc5C(=O)c46)ccc31)C(=O)c1ccncc1-2` returned a GI50 of 1.6 µM, an LC50 (concentration killing 50% of cells) of more than 100 µM and a TGI of more than 100 µM.

For `CN(C)CCCNc1ccc(NCCCN(C)CCCNc2ccc(NCCCN(C)C)c3c2C(=O)c2cnccc2C3=O)c2c1C(=O)c1ccncc1C2=O`, the Ratio in assay [2] is 2.4. In the assay with HT-29 [1], this molecule displayed a GI50 of 2 µM, an LC50 (concentration killing 50% of cells) of more than 100 µM and a TGI of 7.9 µM.

With `CCN(CC)CCn1nc2c3c(c(NCCCN(C)CCCNc4ccc5c6c(nn5CCN(CC)CC)-c5cnccc5C(=O)c46)ccc31)C(=O)c1ccncc1-2`, in the assay with HT-29 [1], the GI50 turned out to be 0.001 µM, the LC50 (concentration killing 50% of cells) is 97 µM and total growth inhibition (TGI) required 4.5 µM.

With `CN(CCCNc1ccc(NCCN2CCCC2)c2c1C(=O)c1cnccc1C2=O)CCCNc1ccc(NCCN2CCCC2)c2c1C(=O)c1cnccc1C2=O`, the Ratio in [2] stood at 2.4. Further, in the assay with HT-29 [1], the GI50 was 0.5 µM, the LC50 (concentration killing 50% of cells) is more than 100 µM and the TGI is 7.9 µM.

With `CN(C)CCNc1ccc(NCCCN(C)CCCNc2ccc(NCCN(C)C)c3c2C(=O)c2ccncc2C3=O)c2c1C(=O)c1cnccc1C2=O`, the Ratio in [2] came to 7.7. The molecule further showed a GI50 in the assay on HT-29 [1] of more than 100 µM.

With `CN(C)CCn1nc2c3c(c(NCCCN(C)CCCNc4ccc5c6c(nn5CCN(C)C)-c5ccncc5C(=O)c46)ccc31)C(=O)c1cnccc1-2`, in the assay on HT-29 [1], halving of growth (GI50) required 0.7 µM, the LC50 (concentration killing 50% of cells) is more than 100 µM and the TGI is more than 100 µM.

Consider `NCCNc1ccc(NCCN)c2c1C(=O)c1ccncc1C2=O` [PIXANTRONE], for which the CC50 with HT-29 [3] was determined as 2.3 µM; in the assay with HT-29 [4], 41 µM; in the assay with HT-29 [5], 60.4 µM; in the assay on HT-29 [6], 41.6 µM; with HT-29 [7] it was 50.4 µM; in the assay with HT-29 [8] it was 32.5 µM. Moreover, the CC50 in the assay with HT-29 [9] worked out at 38.4 µM; with HT-29 [10] it was 5.1 µM; in the assay with HT-29 [11], 6.1 µM; in the assay on HT-29 [12] it was 4.8 µM; with HT-29 [13], 6.2 µM; with HT-29 [14], 11.2 µM. Further, the GI50 with HT-29 [1] was determined as 0.0012 µM. Besides, the TGI with HT-29 [1] turned out to be 3.2 µM.

In the assay with HT-29 [1], `CN(C)CCCn1nc2c3c(c(NCCCN(C)CCCNc4ccc5c6c(nn5CCCN(C)C)-c5ccncc5C(=O)c46)ccc31)C(=O)c1cnccc1-2` yielded a GI50 of 40 µM, an LC50 (concentration killing 50% of cells) of more than 100 µM and a TGI of more than 100 µM.

With `CCN(CC)CCn1nc2c3c(c(NCCCN(C)CCCNc4ccc5c6c(nn5CCN(CC)CC)-c5ccncc5C(=O)c46)ccc31)C(=O)c1cnccc1-2`, in the assay with HT-29 [1], the GI50 stood at 0.4 µM, the LC50 (concentration killing 50% of cells) is more than 100 µM and the TGI is more than 100 µM.

`CCN(CC)CCCNc1ccc(NCCCN(C)CCCNc2ccc(NCCCN(CC)CC)c3c2C(=O)c2cnccc2C3=O)c2c1C(=O)c1ccncc1C2=O`: the Ratio in assay [2] came out at 1.7. In the assay with HT-29 [1], this molecule had a GI50 of 83 µM, an LC50 (concentration killing 50% of cells) of more than 100 µM and a TGI of more than 100 µM.

Consider `CN(C)CCCNc1ccc(NCCCN(C)CCCNc2ccc(NCCCN(C)C)c3c2C(=O)c2ccncc2C3=O)c2c1C(=O)c1cnccc1C2=O`, for which the Ratio in assay [2] turned out to be 1.9. Besides, the GI50 with HT-29 [1] was more than 100 µM.

On to `CCN(CC)CCNc1ccc(NCCCN(C)CCCNc2ccc(NCCN(CC)CC)c3c2C(=O)c2cnccc2C3=O)c2c1C(=O)c1ccncc1C2=O`, for which the Ratio in assay [2] was found to be 3.5. In the assay with HT-29 [1], the GI50 stood at 4.5 µM, the LC50 (concentration killing 50% of cells) was more than 100 µM and the TGI was 32 µM.

As for `CCN(CC)CCNc1ccc(NCCCN(C)CCCNc2ccc(NCCN(CC)CC)c3c2C(=O)c2ccncc2C3=O)c2c1C(=O)c1cnccc1C2=O`, the Ratio in assay [2] worked out at 5. Also, the GI50 with HT-29 [1] is more than 100 µM.
